Calls of active or inactive are those of the source.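 How the source made its calls: active means compounds giving half or more protection of infected cells from virus-caused growth loss, again on retest; inactive means the rest.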 Where a SMILES comes first, the peptide text is derived from it. [ ]: non-standard residue; d: D form. Phe(4-Cl) = N[CH](Cc1ccc(Cl)cc1)C(=O)O; 2Nal = N[CH](Cc1ccc2ccccc2c1)C(=O)O; 3Pal = N[CH](Cc1cccnc1)C(=O)O
System: CEM cells HIV-1 protection, formazan growth assay
Experiment: NCI AIDS Antiviral Assay
Conditions: for IC50: measured here: growth of uninfected CEM cells
In short: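 Human CEM cells, uninfected and HIV-1-infected, exposed to five drug concentrations; growth measured by soluble formazan assay and scored as percent protection from infection, with protecting compounds retested.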

With COC(=O)C(CCc1cc(OC)ccc1I)C1=CCC2(CC1)OCCO2 (configuration not stated) as the molecule, how does the EC50 read?
The EC50 was > 38 µM.

What about the IC50 of the same molecule?
Its IC50 is > 38 µM.

Which results are given for CCC(=O)OCNC(=O)NNC(=O)CCCC(=O)NNC(=O)NCOC(=O)CC?
EC50: > 200 µM; IC50: > 200 µM

Which results are given for COc1ccc(C[C@H]2C(=O)OC[C@@H]2Cc2ccc(OC)c(OC)c2)cc1O?
EC50: > 200 µM; IC50: 70.8 µM

With CC1=C[C@H]2O[C@@H]3C[C@H]4OC(=O)/C=C\C=C\C(C(C)O)OCC[C@@H](C)[C@H](O)C(=O)OC[C@@]2(CC1)[C@]4(C)[C@]31CO1 (some centres not stated) as the molecule, how does the EC50 read?
Its EC50 is > 0.0479 µM.

And the IC50?
The IC50 was 0.000102 µM.

Which EC50 does the source give for COC(=O)C1C2C(=O)NC(=O)C2C(c2ccc(-c3ccccc3)cc2)N1C1CCCCC1 (configuration not stated) here?
Its EC50 is > 135 µM.

What about the IC50 of the same molecule?
The IC50 was 19.1 µM.

How did the outcome turn out when NS(=O)(=O)c1ccc(N=NC2Sc3nc4ccccc4n3C2=O)cc1 (configuration not stated) was run?
The outcome was “inactive”.

For COc1ccc(N2C(=O)C3c4[nH]c5ccc(OC)cc5c4C4CCC(C(C)(C)C)CC4C3C2=O)cc1 (configuration not stated), which EC50 is on record?
Its EC50 is > 14.8 µM.

What about the IC50 of the same molecule?
Its IC50 is > 14.8 µM.

For [N-]=[N+]=NCC(CO)OCn1cc(Cc2ccccc2)c(=O)[nH]c1=O (configuration not stated), which outcome is on record?
The outcome was “inactive”.

With Cc1ccc(/C=N/n2c(-c3ccc(C)cc3)n[nH]c2=O)cc1 as the molecule, how does the EC50 read?
Its EC50 is > 200 µM.

What about the IC50 of the same molecule?
The IC50 was > 200 µM.

N#Cc1nc(N)c(C#N)[nH]1 was tested. Which outcome did it give?
Its outcome is “inactive”.

Which results are given for O=C(/C=C/c1ccccc1Cl)c1cccc2ccccc12?
EC50: > 9.33 µM; IC50: > 9.33 µM

How did the EC50 turn out when N#CC(NC12CC3CC(CC(C3)C1)C2)c1ccccc1C(F)(F)F (configuration not stated) was run?
Its EC50 is > 77.6 µM.

And the IC50?
The IC50 was > 77.6 µM.

How did the EC50 turn out when CCOC(=O)/C=C/SCCC(=O)OC was run?
The EC50 was > 1150 µM.

And the IC50?
Its IC50 is 891 µM.

For Cc1ccc(/S(Cc2ccccc2)=N\S(=O)(=O)c2ccc(C)cc2)cc1 (configuration not stated), which EC50 is on record?
The EC50 was > 67.6 µM.

And the IC50?
The IC50 was > 67.6 µM.

What does the source list for NNC1=Nc2cc3c(cc2C(=O)N2C[C@H](O)CC12)OCO3 (some centres not stated)?
EC50: > 200 µM; IC50: > 200 µM

CN1C/C(=C\c2cccs2)C2=NC(=S)NC(c3cccs3)C2C1 (configuration not stated) was tested. Which EC50 did it give?
The EC50 was > 200 µM.

What about the IC50 of the same molecule?
The IC50 was 36.3 µM.

Which results are given for CCNCC1c2ccccc2-c2nc3ccccc3nc2-c2ccccc21?
EC50: > 60.3 µM; IC50: 8.32 µM

For CC(=O)Nc1ccc(C(=O)n2[nH]c(C)c(/C=C3\C(=O)C=Cc4ccccc43)c2=O)cc1, which EC50 is on record?
The EC50 was > 87.1 µM.

And the IC50?
The IC50 was 42.7 µM.

For CCCCCC=C(c1cc(Br)c(O)c(C(=O)O)c1)c1cc(Br)c(O)c(C(=O)O)c1, which EC50 is on record?
Its EC50 is > 813 µM.

What about the IC50 of the same molecule?
The IC50 was 151 µM.

With CS(=O)(=O)CS(=O)CS(=O)CS(=O)CC(NC(=O)CCC(N)C(=O)O)C(=O)O (configuration not stated) as the molecule, how does the EC50 read?
Its EC50 is > 513 µM.

What about the IC50 of the same molecule?
The IC50 was > 513 µM.

For N#CN=C(N(Cc1ccccc1)Cc1ccccc1)N(Cc1ccccc1)Cc1ccccc1, which EC50 is on record?
Its EC50 is > 39.8 µM.

What about the IC50 of the same molecule?
The IC50 was > 39.8 µM.

Which EC50 does the source give for Nc1nc(Cl)cc(NCC2(CCO)CCC2)n1 here?
Its EC50 is > 200 µM.

What about the IC50 of the same molecule?
Its IC50 is 138 µM.

How did the EC50 turn out when CCCCCCCCCCCC(O)=C1C(=O)CCCC1=O was run?
Its EC50 is > 17.8 µM.

What about the IC50 of the same molecule?
The IC50 was > 17.8 µM.

Which EC50 does the source give for CC(=O)[C@H]1CCC2[C@@H]3CC=C4C[C@@H](OC5OC(COS(=O)(=O)O)C(O)C(O)C5O)CC[C@]4(C)C3CC[C@@]21C (some centres not stated) here?
Its EC50 is > 38 µM.

And the IC50?
The IC50 was > 38 µM.

Which EC50 does the source give for CCOC(=O)C1(C(=O)OCC)C(C(C)(C)C)=C(C)c2ccccc21 here?
The EC50 was > 50.1 µM.

And the IC50?
The IC50 was 20.4 µM.

How did the EC50 turn out when CC(=O)NC(Cc1ccc2ccccc2c1)C(=O)NC(Cc1ccc(Cl)cc1)C(=O)NC(Cc1cccnc1)C(=O)NC(CO)C(=O)NC(Cc1ccc(O)cc1)C(=O)NC(CCCN=C(N)N)C(=O)NC(CC(C)C)C(=O)NC(CCCN=C(N)N)C(=O)N1CCCC1C(=O)NC(C)C(N)=O (configuration not stated) (Ac-[2Nal][Phe(4-Cl)][3Pal]SYRLRPA-NH2; configuration not given here) was run?
Its EC50 is > 61.7 µM.

What about the IC50 of the same molecule?
Its IC50 is 15.1 µM.

How did the outcome turn out when CN1C(=O)OC2CC/C=C\CCC2C1c1ccccc1 (configuration not stated) was run?
The outcome was “inactive”.

Which EC50 does the source give for C=C1C(=O)OC2/C=C(\C)CC(O)/C=C(\C)CC(OC(=O)/C(=C\C)COC(C)=O)C12 (configuration not stated) here?
Its EC50 is > 115 µM.

And the IC50?
Its IC50 is 0.407 µM.

With COCCCNC1=C(C#N)C(=O)NC2(CCCC2)S1 as the molecule, how does the EC50 read?
The EC50 was > 525 µM.

And the IC50?
The IC50 was > 525 µM.

For OCC(O)C1OCOC2COCOC21 (configuration not stated), which EC50 is on record?
Its EC50 is > 200 µM.

What about the IC50 of the same molecule?
The IC50 was > 200 µM.

What does the source list for O=S(Cc1ccc2c(c1)OCO2)c1ccccc1 (configuration not stated)?
EC50: > 955 µM; IC50: 661 µM

What does the source list for CCC1CCC2c3c([nH]c4ccc(C)cc34)C3C(=O)N(N(C)C)C(=O)C3C2C1 (configuration not stated)?
EC50: > 200 µM; IC50: > 100 µM

For CN1C[C@H]2[C@@H](C1=O)[C@H](c1ccccc1)ON2C, which EC50 is on record?
The EC50 was > 200 µM.

And the IC50?
The IC50 was > 200 µM.

With COc1cc(CNc2nc3cc(C(F)(F)F)ccc3nc2C(=O)O)cc(OC)c1OC as the molecule, how does the EC50 read?
Its EC50 is > 200 µM.

What about the IC50 of the same molecule?
Its IC50 is 97.7 µM.

For O=S(=O)([O-])[O-].[Fe+2].[OH2+]c1c(Cl)cc(Cl)cc1/C=N/Nc1ccccn1, which outcome is on record?
Its outcome is “inactive”.

For O=C(/C=C/c1ccc(O)cc1)c1cc(Cl)ccc1O, which outcome is on record?
Its outcome is “inactive”.

Which results are given for CCCc1cc(=O)oc2c3c(ccc12)OC(C)(C)[C@H](OC(=O)C12CCC(C)(C(=O)O1)C2(C)C)[C@@H]3OC(=O)C12CCC(C)(C(=O)O1)C2(C)C (some centres not stated)?
EC50: 0.891 µM; IC50: > 200 µM

With O=C1C2=C(c3ccccc31)C(c1ccc(Cl)cc1)NC(=S)N2 (configuration not stated) as the molecule, how does the EC50 read?
The EC50 was > 57.5 µM.

What about the IC50 of the same molecule?
The IC50 was 29.5 µM.

How did the outcome turn out when CCOC(=O)C12C3CCC1C2C(=O)C3 (configuration not stated) was run?
Its outcome is “inactive”.

C=C1CC[C@@H](O)[C@]2(C)CC[C@@H](C(C)(C)O)[C@@H](OC3OC(CO)C(O)C(O)C3O)C12 (some centres not stated) was tested. Which EC50 did it give?
The EC50 was > 288 µM.

What about the IC50 of the same molecule?
Its IC50 is > 288 µM.

Cc1cc(C)nc(NS(=O)(=O)c2ccc(NNc3c4ccccc4nc4c(C(=O)Nc5ccc(S(N)(=O)=O)cc5)cccc34)cc2)n1 was tested. Which EC50 did it give?
The EC50 was > 200 µM.

And the IC50?
The IC50 was 11 µM.

What does the source list for CC1(CO)OC(n2cc(C(=O)NC(=O)OCc3ccccc3)c(=O)[nH]c2=O)CC1O (configuration not stated)?
EC50: > 603 µM; IC50: 372 µM

How did the EC50 turn out when Cc1cc(NS(=O)(=O)c2ccc(Nc3c4ccccc4nc4ccc(C(=O)Nc5ccc(S(N)(=O)=O)cc5)cc34)cc2)no1 was run?
Its EC50 is > 200 µM.

And the IC50?
Its IC50 is 110 µM.

How did the EC50 turn out when CCOC(=O)C12CCSC1C1(C#N)C(C#N)=CC2(N=P(c2ccccc2)(c2ccccc2)c2ccccc2)n2c(=O)n(-c3ccccc3)c(=O)n21 (configuration not stated) was run?
Its EC50 is > 26.3 µM.

And the IC50?
The IC50 was > 26.3 µM.

With NC1CCC(N(CC(=O)O)CC(=O)O)C(N(CC(=O)O)CC(=O)O)C1 (configuration not stated) as the molecule, how does the EC50 read?
The EC50 was > 200 µM.

What about the IC50 of the same molecule?
Its IC50 is 112 µM.

Which EC50 does the source give for CCN(CC)CCOc1ccc(N2C(=O)c3cccc4cc([N+](=O)[O-])cc(c34)C2=O)cc1 here?
Its EC50 is > 200 µM.

What about the IC50 of the same molecule?
Its IC50 is 2.45 µM.

How did the outcome turn out when CC(=O)Nc1cccc2[nH]c3ccccc3c(=O)c12 was run?
The outcome was “inactive”.

What does the source list for CCN(CC)CCCNC(=O)Cc1ccccc1Nc1c(Cl)cccc1Cl?
EC50: > 200 µM; IC50: 16.6 µM

What does the source list for Cc1ccc(C)n1-c1ccccc1C1C=Cn2c(=O)oc3c(OC(C)C)c(OC(C)C)c(O)c1c32 (configuration not stated)?
EC50: > 200 µM; IC50: 16.2 µM

Which outcome does the source give for CN(C(=O)C12C3C4C1C1C4(C(=O)C45C6C7C4C4C5C6C74C)C3C12C)C(C)(C)C (configuration not stated) here?
Its outcome is “inactive”.

For Clc1nssc1=Nc1nonc1-c1ccccc1, which EC50 is on record?
Its EC50 is > 200 µM.

And the IC50?
The IC50 was 5.5 µM.

CCCC(C(=O)OCC(C)N1CCCC1(C)C)C1CCCC1 (configuration not stated) was tested. Which outcome did it give?
The outcome was “inactive”.

How did the EC50 turn out when CC1(C)C=C(S(=O)(=O)c2ccccc2)Oc2ccccc2O1 was run?
Its EC50 is > 200 µM.

And the IC50?
Its IC50 is 132 µM.

Which EC50 does the source give for O=C1C[C@@H]2[C@@H](CCC23CC3)N1 here?
Its EC50 is > 1660 µM.

What about the IC50 of the same molecule?
Its IC50 is > 1660 µM.

What does the source list for CCC1(CC(=O)N(C)C)C=CCN(C(=O)Oc2ccccc2)C1 (configuration not stated)?
EC50: > 58.9 µM; IC50: > 58.9 µM

How did the EC50 turn out when COc1ccc(Cl)cc1C(=O)c1cc(Cl)cc(S(=O)(=O)OC)c1OC was run?
Its EC50 is > 24.5 µM.

What about the IC50 of the same molecule?
Its IC50 is > 24.5 µM.

Which EC50 does the source give for O=C(Cc1ccc(Cl)cc1)NC(NC(=O)Cc1ccc(Cl)cc1)C(Cl)(Cl)Cl here?
Its EC50 is > 200 µM.

What about the IC50 of the same molecule?
Its IC50 is > 200 µM.

How did the EC50 turn out when COc1ccc(C)cc1S(=O)(=O)c1c(Cl)cccc1[N+](=O)[O-] was run?
The EC50 was > 200 µM.

And the IC50?
Its IC50 is > 200 µM.

Cc1nc2c(=O)n(C)c(=O)nc-2n(-c2ccc(Cl)cc2)c1C was tested. Which outcome did it give?
The outcome was “inactive”.
